The text below walks through data of PubChem BioAssay AID234 (DTP/NCI, 2004).

Several values for one entry are separate records, joined by “and”; a condition that tells them apart may be missing. Equal entries are not always repeated. Results filed as inconclusive are left out.

This test concerns C3AKF1 mice, hamster liver cystadenocarcinoma s.c., tumor weight T/C. Briefly: NCI In Vivo Anticancer Drug Screen. Data for tumor model Cystadenocarcinoma, Liver (No. 1) (Hamster) (subcutaneous) in C3AKF1 (CHKRF1) mice. As to conditions: endpoint: mean tumor weight, higher = larger tumour. As for the experimental part:
The antitumor activity of compounds was measured in mice bearing transplantable tumors. Survival or tumor size were measured and the results are expressed as the measurement made in the treated group (T) divided by the measurement made in the vehicle treated control group (C). The tumor model used in this assay is Cystadenocarcinoma, Liver (No. 1) (Hamster) (subcutaneous) in C3AKF1 (CHKRF1) mice

Where [1] appears, read: dose: 0.5 mg/kg/injection, schedule: Q01DX010 (ip), vehicle: carboxymethylcellulose (CMC).
Setting [2] is: dose: 1.0 mg/kg/injection, schedule: Q01DX010 (ip), vehicle: carboxymethylcellulose (CMC).
[3] abbreviates: dose: 75.0 mg/kg/injection, schedule: Q01DX010 (ip), vehicle: carboxymethylcellulose (CMC).
The mark [4] stands for this setting: dose: 150.0 mg/kg/injection, schedule: Q01DX010 (ip), vehicle: carboxymethylcellulose (CMC).
Setting [5] is: dose: 7.0 mg/kg/injection, schedule: Q01DX010 (ip), vehicle: carboxymethylcellulose (CMC).
[6] abbreviates: dose: 15.0 mg/kg/injection, schedule: Q01DX010 (ip), vehicle: carboxymethylcellulose (CMC).
[7] abbreviates: dose: 45.0 mg/kg/injection, schedule: Q01DX010 (ip), vehicle: carboxymethylcellulose (CMC).
[8] abbreviates: dose: 50.0 mg/kg/injection, schedule: Q01DX010 (ip), vehicle: carboxymethylcellulose (CMC).
[9] abbreviates: dose: 100.0 mg/kg/injection, schedule: Q01DX010 (ip), vehicle: carboxymethylcellulose (CMC).
The mark [10] stands for this setting: dose: 200.0 mg/kg/injection, schedule: Q01DX010 (ip), vehicle: carboxymethylcellulose (CMC).
Setting [11] is: dose: 400.0 mg/kg/injection, schedule: Q01DX010 (ip), vehicle: carboxymethylcellulose (CMC).
The mark [12] stands for this setting: dose: 3.0 mg/kg/injection, schedule: Q01DX010 (ip), vehicle: carboxymethylcellulose (CMC).
Where [13] appears, read: dose: 12.0 mg/kg/injection, schedule: Q01DX010 (ip), vehicle: carboxymethylcellulose (CMC).
[14] abbreviates: dose: 12.5 mg/kg/injection, schedule: Q01DX010 (ip), vehicle: carboxymethylcellulose (CMC).
Setting [15] is: dose: 25.0 mg/kg/injection, schedule: Q01DX010 (ip), vehicle: carboxymethylcellulose (CMC).
Setting [16] is: dose: 37.5 mg/kg/injection, schedule: Q01DX010 (ip), vehicle: carboxymethylcellulose (CMC).
[17] abbreviates: dose: 22.5 mg/kg/injection, schedule: Q01DX010 (ip), vehicle: carboxymethylcellulose (CMC).

Take `CCCCCCCCCCCC[n+]1cccc2ccccc21`: the T/C by setting is: (dose: 0.25 mg/kg/injection, schedule: Q01DX010 (ip), vehicle: carboxymethylcellulose (CMC)) 73 % of control; under setting [1], 81 % of control; under setting [2], 91 % of control.

As to `NC(=O)/C=C/C(=O)O` (tested in a mixture with another compound), the T/C (dose: 31.0 mg/kg/injection, schedule: Q#A X010 (ip), vehicle: saline) was 68 % of control.

As to `c1ccc(CSc2ncnc3nc[nH]c23)nc1`, the T/C is 85 % of control (dose: 18.0 mg/kg/injection, schedule: Q01DX010 (ip), vehicle: carboxymethylcellulose (CMC)); 89 % of control (dose: 37.0 mg/kg/injection, schedule: Q01DX010 (ip), vehicle: carboxymethylcellulose (CMC)); 90 % of control and 104 % of control under setting [3]; 86 % of control under setting [4].

For the molecule `O=C(NO)c1ccncc1`, the T/C runs as follows: (dose: 250.0 mg/kg/injection, schedule: Q01DX010 (ip), vehicle: saline) 80 % of control; (dose: 500.0 mg/kg/injection, schedule: Q01DX010 (ip), vehicle: saline) 78 % of control; (dose: 750.0 mg/kg/injection, schedule: Q01DX010 (ip), vehicle: saline) 76 % of control.

In the case of `CCCCn1cnc2c(=S)nc(N)[nH]c21`, the T/C runs as follows: under setting [2], 82 % of control; under setting [5], 60 % of control and 77 % of control; under setting [6], 50 % of control; (dose: 30.0 mg/kg/injection, schedule: Q01DX010 (ip), vehicle: carboxymethylcellulose (CMC)) 49 % of control.

With `CC(C)CCSc1nc(N)nc2nc[nH]c12`, the T/C runs as follows: under setting [7], 74 % of control; (dose: 90.0 mg/kg/injection, schedule: Q01DX010 (ip), vehicle: carboxymethylcellulose (CMC)) 70 % of control; (dose: 180.0 mg/kg/injection, schedule: Q01DX010 (ip), vehicle: carboxymethylcellulose (CMC)) 94 % of control.

As to `O=S(=O)(O)C(Nc1ccccc1)c1ccccc1` (stereo not given), the T/C is 88 % of control (dose: 100.0 mg/kg/injection, schedule: Q01DX010 (ip), vehicle: water); 66 % of control (dose: 200.0 mg/kg/injection, schedule: Q01DX010 (ip), vehicle: water); 84 % of control (dose: 400.0 mg/kg/injection, schedule: Q01DX010 (ip), vehicle: water).

As for `COc1ccccc1NC(=O)CSC(N)=O`, the T/C was 92 % of control under setting [8], 86 % of control under setting [9], 95 % of control under setting [10] and 38 % of control under setting [11].

Take `Cc1c2ccc3ccccc3c2c[n+]2ccccc12`: the T/C is 153 % of control under setting [12] and 89 % of control under setting [13].

For the molecule `CCOC(=O)Sc1ncnc2nc[nH]c12`, the T/C was 87 % of control (dose: 14.0 mg/kg/injection, schedule: Q01DX010 (ip), vehicle: carboxymethylcellulose (CMC)); 84 % of control (dose: 28.0 mg/kg/injection, schedule: Q01DX010 (ip), vehicle: carboxymethylcellulose (CMC)); 86 % of control (dose: 56.0 mg/kg/injection, schedule: Q01DX010 (ip), vehicle: carboxymethylcellulose (CMC)).

Turning to `CCN(CC)Cc1cc(Nc2c3ccccc3nc3cc(Cl)ccc23)ccc1O`, the T/C by setting is: (dose: 6.25 mg/kg/injection, schedule: Q01DX010 (ip), vehicle: carboxymethylcellulose (CMC)) 84 % of control; under setting [14], 106 % of control; under setting [15], 87 % of control; under setting [8], 88 % of control.

Consider `CCn1cnc2c(=S)nc(N)[nH]c21`, for which the T/C was 115 % of control under setting [12]; 107 % of control under setting [5]; 59 % of control and 70 % of control under setting [6].

As for `O=C(c1ccc(C(=O)N2CC2)cc1)N1CC1`, the T/C under setting [12] was 69 % of control; the T/C (dose: 6.0 mg/kg/injection, schedule: Q01DX010 (ip), vehicle: carboxymethylcellulose (CMC)) is 85 % of control; the T/C under setting [13] is 166 % of control; the T/C (dose: 24.0 mg/kg/injection, schedule: Q01DX010 (ip), vehicle: carboxymethylcellulose (CMC)) is 98 % of control.

For `O=C(O)Cc1ccc(C2CCCCC2)cc1`, the T/C reads like this: under setting [16], 118 % of control; under setting [3], 115 % of control; under setting [4], 114 % of control and 121 % of control; (dose: 300.0 mg/kg/injection, schedule: Q01DX010 (ip), vehicle: carboxymethylcellulose (CMC)) 94 % of control.

`NNc1nncc2ccccc12`: the T/C was 111 % of control under setting [16] and 94 % of control under setting [3].

For the molecule `O=C(O)CC(O)(CC(=O)O)C(=O)O.[Ga]`, the T/C under setting [14] was 123 % of control, the T/C under setting [15] is 96 % of control and the T/C under setting [8] was 79 % of control.

`O=C(Nc1ccc(C2=NCCN2)cc1)c1ccc(C(=O)Nc2ccc(C3=NCCN3)cc2)c(Cl)c1`: the T/C was 83 % of control (dose: 5.0 mg/kg/injection, schedule: Q01DX010 (ip), vehicle: saline); 114 % of control (dose: 10.0 mg/kg/injection, schedule: Q01DX010 (ip), vehicle: saline); 80 % of control (dose: 20.0 mg/kg/injection, schedule: Q01DX010 (ip), vehicle: saline).

Take `S=c1c2[nH]cnc2ncn1CCSC1=NC=NC2=NC=NC21` (stereo not given): the T/C under setting [9] was 95 % of control; the T/C under setting [10] was 100 % of control; the T/C under setting [11] was 97 % of control; the T/C (dose: 600.0 mg/kg/injection, schedule: Q01DX010 (ip), vehicle: carboxymethylcellulose (CMC)) was 93 % of control.

On to `O=P(N1CC1)(N1CC1)N1CC1`, for which the T/C under setting [1] is 93 % of control; the T/C under setting [2] is 65 % of control; the T/C (dose: 2.0 mg/kg/injection, schedule: Q01DX010 (ip), vehicle: carboxymethylcellulose (CMC)) is 71 % of control; the T/C (dose: 4.0 mg/kg/injection, schedule: Q01DX010 (ip), vehicle: carboxymethylcellulose (CMC)) is 48 % of control.

As to `O=c1c[n+](-c2ccccc2)[nH]o1`, the T/C under setting [17] is 66 % of control and the T/C under setting [7] was 41 % of control.

In the case of `O=C(COc1cc(Cl)c(Cl)cc1Cl)OCCOc1cc(Cl)c(Cl)cc1Cl`, the T/C (dose: 11.25 mg/kg/injection, schedule: Q01DX010 (ip), vehicle: carboxymethylcellulose (CMC)) was 88 % of control; the T/C under setting [17] was 102 % of control; the T/C under setting [7] is 87 % of control.

Take `CC(CCc1cccc2ccccc12)(C(=O)O)C(=O)O`: the T/C under setting [9] is 96 % of control.

As for `ClCCn1cnc2c(SCc3ccccc3Cl)ncnc21`, the T/C by setting is: under setting [8], 96 % of control; under setting [9], 64 % of control; under setting [11], 49 % of control.
